Measurements: PubChem BioAssay (NCI)
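In this assay, cells in 96-well plates receive the compound at five concentrations for 48 hours. Endpoints are linearly interpolated between the surrounding concentrations. Here, GI50 denotes the concentration required for 50% inhibition of growth. TGI denotes the concentration required for complete inhibition of growth.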

How the values were obtained:
Assay in all cases: growth of human tumour cells (NCI), 48 h
NCI-H460 lung = test system: NCI-H460 lung
BT-549 breast = test system: BT-549 breast
T-47D breast = test system: T-47D breast
CAKI-1 renal = test system: CAKI-1 renal
SF-295 CNS = test system: SF-295 CNS
MDA-MB-468 breast = test system: MDA-MB-468 breast
RPMI-8226 leukemia = test system: RPMI-8226 leukemia
SK-MEL-28 melanoma = test system: SK-MEL-28 melanoma
CCRF-CEM leukemia = test system: CCRF-CEM leukemia
KM12 colon = test system: KM12 colon
HCT-116 colon = test system: HCT-116 colon
NCI-H23 lung = test system: NCI-H23 lung
DU-145 prostate = test system: DU-145 prostate
SF-268 CNS = test system: SF-268 CNS
SNB-75 CNS = test system: SNB-75 CNS
UACC-257 melanoma = test system: UACC-257 melanoma
HOP-62 NSCLC = test system: HOP-62 NSCLC
HT29 colon = test system: HT29 colon
SNB-19 CNS = test system: SNB-19 CNS
TK-10 renal = test system: TK-10 renal
COLO 205 colon = test system: COLO 205 colon
SN12C renal = test system: SN12C renal
SW-620 colon = test system: SW-620 colon
RXF 393 renal = test system: RXF 393 renal
OVCAR-8 ovarian = test system: OVCAR-8 ovarian
ACHN renal = test system: ACHN renal
MDA-MB-435 = test system: MDA-MB-435
786-0 renal = test system: 786-0 renal
SK-MEL-2 melanoma = test system: SK-MEL-2 melanoma
MALME-3M melanoma = test system: MALME-3M melanoma
LOX IMVI melanoma = test system: LOX IMVI melanoma
A498 renal = test system: A498 renal
UO-31 renal = test system: UO-31 renal
SR leukemia = test system: SR leukemia
HL-60(TB) leukemia = test system: HL-60(TB) leukemia
U251 CNS = test system: U251 CNS
HOP-92 NSCLC = test system: HOP-92 NSCLC
HCT-15 colon = test system: HCT-15 colon
PC-3 prostate = test system: PC-3 prostate
MDA-MB-231 breast = test system: MDA-MB-231 breast
OVCAR-5 ovarian = test system: OVCAR-5 ovarian
UACC-62 melanoma = test system: UACC-62 melanoma
K-562 leukemia = test system: K-562 leukemia
NCI-H226 lung = test system: NCI-H226 lung
MOLT-4 leukemia = test system: MOLT-4 leukemia
OVCAR-4 ovarian = test system: OVCAR-4 ovarian
IGROV1 ovarian = test system: IGROV1 ovarian
M14 melanoma = test system: M14 melanoma
SF-539 CNS = test system: SF-539 CNS
OVCAR-3 ovarian = test system: OVCAR-3 ovarian
NCI/ADR-RES ovarian = test system: NCI/ADR-RES ovarian
MCF7 breast = test system: MCF7 breast
SK-MEL-5 melanoma = test system: SK-MEL-5 melanoma
SK-OV-3 ovarian = test system: SK-OV-3 ovarian
HCC-2998 colon = test system: HCC-2998 colon
NCI-H522 lung = test system: NCI-H522 lung
EKVX NSCLC = test system: EKVX NSCLC
A549 NSCLC = test system: A549 NSCLC
HS 578T breast = test system: HS 578T breast

Cc1ccc2c(c1)/C(=C/C(=O)c1cc3ccccc3oc1=O)C(=O)N2
GI50 (NCI-H460 lung): > 100 µM | TGI (NCI-H460 lung): > 100 µM | GI50 (BT-549 breast): 17.6 µM | TGI (BT-549 breast): 33.7 µM | GI50 (T-47D breast): 13 µM | TGI (T-47D breast): 34.5 µM | GI50 (CAKI-1 renal): 12.2 µM | TGI (CAKI-1 renal): 25.3 µM | GI50 (SF-295 CNS): > 100 µM | TGI (SF-295 CNS): > 100 µM | GI50 (MDA-MB-468 breast): 10.5 µM | TGI (MDA-MB-468 breast): 23.9 µM | GI50 (RPMI-8226 leukemia): 22.1 µM | TGI (RPMI-8226 leukemia): 63.9 µM | GI50 (SK-MEL-28 melanoma): 17 µM | TGI (SK-MEL-28 melanoma): 30.6 µM | GI50 (CCRF-CEM leukemia): 6.91 µM | TGI (CCRF-CEM leukemia): 56.5 µM | GI50 (KM12 colon): > 100 µM | TGI (KM12 colon): > 100 µM | GI50 (HCT-116 colon): 4.45 µM | TGI (HCT-116 colon): 16.8 µM | GI50 (NCI-H23 lung): 16.4 µM | TGI (NCI-H23 lung): 32.8 µM | GI50 (DU-145 prostate): 17.9 µM | TGI (DU-145 prostate): 32.4 µM | GI50 (SF-268 CNS): 68.3 µM | TGI (SF-268 CNS): > 100 µM | GI50 (SNB-75 CNS): 82.1 µM | TGI (SNB-75 CNS): > 100 µM | GI50 (UACC-257 melanoma): 15.7 µM | TGI (UACC-257 melanoma): 29.6 µM | GI50 (HOP-62 NSCLC): > 100 µM | TGI (HOP-62 NSCLC): > 100 µM | GI50 (HT29 colon): 20.6 µM | TGI (HT29 colon): 40.5 µM | GI50 (SNB-19 CNS): > 100 µM | TGI (SNB-19 CNS): > 100 µM | GI50 (TK-10 renal): 20 µM | TGI (TK-10 renal): 34.7 µM | GI50 (COLO 205 colon): 17.2 µM | TGI (COLO 205 colon): 32.4 µM | GI50 (SN12C renal): 16.9 µM | TGI (SN12C renal): 31.9 µM | GI50 (SW-620 colon): 14.7 µM | TGI (SW-620 colon): 30.4 µM | GI50 (RXF 393 renal): 15.8 µM | TGI (RXF 393 renal): 29.3 µM | GI50 (OVCAR-8 ovarian): 17.9 µM | TGI (OVCAR-8 ovarian): 34 µM | GI50 (ACHN renal): 9.6 µM | TGI (ACHN renal): 21.3 µM | GI50 (MDA-MB-435): 17.6 µM | TGI (MDA-MB-435): 33 µM | GI50 (786-0 renal): 18.5 µM | TGI (786-0 renal): 32.4 µM | GI50 (SK-MEL-2 melanoma): 21.1 µM | TGI (SK-MEL-2 melanoma): 54.7 µM | GI50 (MALME-3M melanoma): 10.6 µM | TGI (MALME-3M melanoma): 22.5 µM | GI50 (LOX IMVI melanoma): 14.7 µM | TGI (LOX IMVI melanoma): 27.9 µM | GI50 (A498 renal): > 100 µM | TGI (A498 renal): > 100 µM | GI50 (UO-31 renal): 11.3 µM | TGI (UO-31 renal): 23.4 µM | GI50 (SR leukemia): 7.24 µM | TGI (SR leukemia): 74.7 µM | GI50 (HL-60(TB) leukemia): 4.32 µM | TGI (HL-60(TB) leukemia): 23.1 µM | GI50 (U251 CNS): 29.2 µM | TGI (U251 CNS): > 100 µM | GI50 (HOP-92 NSCLC): 14.5 µM | TGI (HOP-92 NSCLC): 28.4 µM | GI50 (HCT-15 colon): 16.7 µM | TGI (HCT-15 colon): 32.8 µM | GI50 (PC-3 prostate): 16.1 µM | TGI (PC-3 prostate): 36 µM | GI50 (MDA-MB-231 breast): 15 µM | TGI (MDA-MB-231 breast): 28.2 µM | GI50 (OVCAR-5 ovarian): 16.7 µM | TGI (OVCAR-5 ovarian): 30.3 µM | GI50 (UACC-62 melanoma): 15.5 µM | TGI (UACC-62 melanoma): 33 µM | GI50 (K-562 leukemia): 3.91 µM | TGI (K-562 leukemia): 48.7 µM | GI50 (NCI-H226 lung): 18.6 µM | TGI (NCI-H226 lung): 46.8 µM | GI50 (MOLT-4 leukemia): 8.56 µM | TGI (MOLT-4 leukemia): 43.2 µM | GI50 (OVCAR-4 ovarian): 17.4 µM | TGI (OVCAR-4 ovarian): 33.3 µM | GI50 (IGROV1 ovarian): 16.2 µM | TGI (IGROV1 ovarian): 29.9 µM | GI50 (M14 melanoma): 15.9 µM | TGI (M14 melanoma): 29.8 µM | GI50 (SF-539 CNS): 16.2 µM | TGI (SF-539 CNS): 29.7 µM | GI50 (OVCAR-3 ovarian): 14.1 µM | TGI (OVCAR-3 ovarian): 27.3 µM | GI50 (NCI/ADR-RES ovarian): 17.3 µM | TGI (NCI/ADR-RES ovarian): 34.4 µM | GI50 (MCF7 breast): 16.4 µM | TGI (MCF7 breast): 34 µM | GI50 (SK-MEL-5 melanoma): 24.9 µM | TGI (SK-MEL-5 melanoma): 80.2 µM | GI50 (SK-OV-3 ovarian): > 100 µM | TGI (SK-OV-3 ovarian): > 100 µM | GI50 (HCC-2998 colon): 17.7 µM | TGI (HCC-2998 colon): 32.8 µM | GI50 (NCI-H522 lung): 3.26 µM | TGI (NCI-H522 lung): 11.5 µM | GI50 (EKVX NSCLC): 16.2 µM | TGI (EKVX NSCLC): 29.9 µM | GI50 (A549 NSCLC): 34.5 µM | TGI (A549 NSCLC): > 100 µM | GI50 (HS 578T breast): 19.4 µM | TGI (HS 578T breast): 84.6 µM
